We go through three molecules from patent US4833155A, “3-(ω-(3,5,-di-t-butyl-4-hydroxyphenyl)-alkanoyl)pyrroles, and anti-inflammatory uses thereof” (Syntex (U.S.A.) Inc., priority 1986, dated 1989).

In assay [1] the test system is carrageenan-induced rat paw inflammation. Briefly: Carrageenan-Induced Rat Paw Inflammation Assay "CI". It is filed as in vivo. The note with it: oral. The method, then: Anti-inflammatory activity is determined by the Carrageenan-Induced Rat Paw Inflammation "CI" Assay, as is well accepted in the art. A modification of the assay described by Winter, et al., supra., is performed as follows:
Female albino rats (Sim: (SD)fbr) weighing 80-90 g receive the test materials orally in 1 ml aqueous solution at hour 0. One hour later (hr 1) 0.05 ml of a 1% solution (in aqueous 0.9% NaCl) of carrageenan is injected into the right hind paw to inflame the paw. The rats are sacrificed at hour 4, at which time both hind paws are removed and individually weighed. The percent increase in the weight of the inflamed paw over that of the opposite non-inflamed paw is calculated, and the results are reported according to the formula: [formula]

Assay [2] concerns arachidonic acid-induced mouse ear edema. Briefly: Arachidonic Acid-Induced Mouse Ear Edema Assay "AAI". It counts as in vivo. As to conditions: topical. The procedure: Topical anti-inflammatory activity is determined by the Arachidonic Acid-Induced Mouse Ear Edema "AAI" Assay, as is well accepted in the art. A modification of the assay described by Young, et al., supra., is performed as follows:
The test materials are prepared as solutions in acetone and applied to the right ears of mice, in groups of eight (8), at hour 0. At hour 1, 2 mg of arachidonic acid in acetone solution is applied to the right ears of the mice to induce an inflammatory response. The left ears of these animals serves as negative controls. At hour 2 the mice are sacrificed; their ears are removed and 8 mm diameter full thickness plugs are cut from the tip of each ear. The plugs are weighed and the mean right and left plug weights are calculated for each group. The results are expressed as percent inhibition of ear plug weight increase relative to a positive control group receiving only acetone at hour 0.

Assay [3] relates to adjuvant-induced arthritis (heat-killed Mycobacterium butyricum), hind paw weight increase. Briefly: Adjuvant-Induced Arthritis Assay "AI". It counts as in vivo. As to conditions: rat, oral, day 18. The procedure:
Anti-inflammatory activity is determined by the Adjuvant-Induced Arthritis ("AI") Assay, as is well accepted in the art. A modification of the assay described by Pearson, et al., supra., is performed as follows: Female Hla:(SD) BR rats weighing 160-180 g are randomly distributed to treatment groups of 12 animals, and given food and water ad libitum. Test materials are prepared fresh weekly as suspensions in carboxymethyl cellulose. The test animals are orally dosed with the suspensions in volumes of 1 ml twice per day Monday through Friday, and with 2 ml once per day on Saturdays and Sundays. […] At time 0, rats are injected intradermally in the proximal quarter of the tail with 0.1 ml of a mineral oil suspension of heat-killed Mycobacterium butyricum (Difco) at a concentration of 10 mg/ml. On day 18 the intensity of swelling in the four paws and tail is estimated visually and scored (0-4 for paws, 0-3 for tail) such that the total maximum score, indicating intense swelling of all four paws and tail, is 19. The animals are then sacrificed; the hind paws of each animal are removed and weighed. The percent inhibition is calculated by comparing the weight increase of the hind paws of the test animals versus the control animals.

In assay [4] the test system is phenylquinone-induced writhing. As to the kind of experiment: Phenylquinone-Induced Mouse Writhing Assay "PI" (cyclooxygenase-inhibition activity). It counts as in vivo. The procedure:
Cyclooxygenase-inhibition activity is determined by the Phenylquinone-Induced Mouse Writhing "PI" Assay, as is well accepted in the art. A modification of the assay described by Hendershot, et al., supra., is performed as follows:
Phenylquinone solution is prepared as follows: 4 mg of phenylquinone is dissolved in 0.5 ml of absolute ethanol, after which 19.5 ml of warmed distilled water is added. When properly prepared, all of the phenylquinone solution remains in solution. The solution is used soon after preparation.
The test materials are administered in 0.2 ml of an aqueous vehicle at hour 0 to groups of eight male Swiss-Webster (Simonsen) mice weighing about 18-20 g. At either twenty (20 ) minutes or one hundred twenty (120) minutes later, 0.25 ml of a 0.02% solution of phenylquinone is injected into each animal, to induce writhing. The animals are then observed for the next ten (10) minutes for writhing responses, and the number of writhes per animal is recorded. The mean number of writhes is calculated for each treatment group and the results are expressed as percent inhibition of writhing responses relative to a control group receiving vehicle alone.
(In general: An intraperitoneal irritant provokes the stretching counted in writhing tests.)

For assay [5] the following is noted: Isomura et al., Chem. Pharm. Bull. 32(1): 152-165 (1984); cited from earlier work.
Assay [6] concerns lipoxygenase in human polymorphonuclear leukocytes. As to the kind of experiment: Human Polymorphonuclear Leukocyte Assay "HPMN" (lipoxygenase inhibition). It counts as cell-based. The note with it: dose 36.0 μg. The method, then: Lipoxygenase inhibition activity is determined in vitro by the Human Polymorphonuclear Leukocyte ("HPMN") Assay, as is well accepted in the art. A modification of the assay described by Radmark, et al., supra., is performed as follows:
1. Preparation of the cells: The HPMNs are prepared from 200-300 ml of heparinized blood of healthy donors not receiving any medication for at least 7 days, using Ficol-Hypaque gradients. In general, HPMNs are greater than 90% pure and their viability is assessed by dye-exclusion to be better than 95%. The cells are suspended in phosphate buffered saline containing 1.0 mM CaCl2 (PH 7.4) and 0.1% ovalbumin, and used within 30 minutes.
2. Lipoxygenase Assay: Incubations are carried out at 37° C. for 5 minutes in a total volume of 0.2 ml arachidonic acid 1-C^14 (1×10^-4 M unless otherwise indicated, and approximately 300,000 cpm) is added to a suspension of cells (ca 5×10^6) to initiate the reaction. […]
1.6 Ml of deionized water is added, vortexed, and centrifuged. […] The eluates are collected in scintillation vials and 1.0 ml aliquot from each of the two fractions are counted for radioactivity in a Packard liquid scintillation counter. From the radioactivity data thus obtained percent yields of total lipoxygenase products in blanks, controls and drug-containing tubes are calculated as well as percent inhibition by the test compounds.

The mark [7] stands for this setting: phenylquinone 20 min after dose, 5.0 mg/kg.
[8] abbreviates: phenylquinone 20 min after dose, 15.0 mg/kg.
The mark [9] stands for this setting: phenylquinone 120 min after dose, 15.0 mg/kg.

Values joined by “and” are separate entries in the source; they are usually repeats but may differ in a detail not shown here. Identical values can stand only once.

`CC(C)(C)c1cc(C(=O)c2cc[nH]c2)cc(C(C)(C)C)c1O` [A, 3-(3,5-di-t-butyl-4-hydroxybenzoyl)pyrrole]: the “Inhibition (CI)” value in assay [1] (dose 1.0 mg/kg) came out at 24%; in assay [1] (dose 10.0 mg/kg), 44%. Further, the “Inhibition (AAI), ear plug weight increase” value was 49% in assay [2] (dose 0.5 mg/ear); 62% in assay [2] (dose 1.0 mg/ear); 67% and 69% in assay [2] (dose 2.0 mg/ear). For the same molecule, the “inhibition of hind paw weight increase” value amounted to 54% in assay [3] (daily dose 0.4 mg/kg) and 70% in assay [3] (daily dose 2.0 mg/kg). In addition, the “Inhibition (PI), writhing responses” value in assay [4] (phenylquinone 20 min after dose, 0.1 mg/kg) is 15%; in assay [4] (phenylquinone 20 min after dose, 1.0 mg/kg) it was 61%; in assay [4] (phenylquinone 20 min after dose, 1.5 mg/kg), 100%; in assay [4] (setting [7]), 99%; in assay [4] (setting [8]), 97% and 96%; in assay [4] (setting [9]) it was 100%.
For `Cc1[nH]ccc1-c1cc(C(C)(C)C)c(O)c(C(C)(C)C)c1` [Formula VIII], the “anti-inflammatory activity as reported” value in assay [5] was “inactive”.
Regarding `CC(C)(C)c1cc(C(=O)c2ccc[nH]2)cc(C(C)(C)C)c1O` [B, 2-(3,5-di-t-butyl-4-hydroxybenzoyl)pyrrole, reference compound], the “Inhibition (HPMN), total lipoxygenase products” value in assay [6] came out at 50%. Also, the “Inhibition (CI)” value in assay [1] (dose 100.0 mg/kg) is given as 30%. Moreover, the “Inhibition (AAI), ear plug weight increase” value in assay [2] (dose 2.0 mg/ear) is on record as 22%. For the same molecule, the “Inhibition (PI), writhing responses” value in assay [4] (setting [7]) is 26%; in assay [4] (setting [8]), 40% and 52% and 65%; in assay [4] (phenylquinone 20 min after dose, 50.0 mg/kg), 56% and 38%; in assay [4] (setting [9]) it was 49%.
